# Assay results taken from patent US20140315876A1, “BETA-LACTAMASE INHIBITORS” (priority 2013, published 2014).
# Where a name gives a salt, the structure may show the parent alone.
# Experiments:
# [1] = system: bacterial strains that express the class D cephalosporinase OXA-15; experiment: Synergy MIC / standard BLI potentiation MIC assay, strains expressing OXA-15; format: cell-based, E. coli; conditions: in the presence of a β-lactam; comparator Avibactam (comparator compound CCC)
# How it was run: (§1)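 Broth microdilution in CAMHB per CLSI, ~10^5 CFU/mL, 18-20 h at 37° C; MIC is lowest concentration with no visible turbidity. Potentiation: β-lactam 128-0.13 μg/mL with BLI fixed at 4 μg/mL. Synergy: BLI serially diluted with β-lactam fixed. Engineered E. coli kept on 25 μg/mL tetracycline.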
# [2] = system: bacterial strains that express KPC β-lactamases; experiment: Synergy MIC / standard BLI potentiation MIC assay, strains expressing KPC β-lactamases; format: cell-based; conditions: more active for at least one KPC strain and/or better spectrum of activity than Avibactam; in the presence of a β-lactam
# How it was run: as §1
SMILES,"activity against bacterial strains that express the class D cephalosporinase OXA-15, compared with Avibactam [1]","activity and/or spectrum of activity against bacterial strains that express KPC β-lactamases, compared with Avibactam [2]"
"N=C(N)N1CC(NCc2nnc([C@@H]3CC[C@@H]4CN3C(=O)N4OS(=O)(=O)O)o2)C1 [Compound 746, (2S,5R)-2-(5-(((1-carbamimidoylazetidin-3-yl)amino)methyl)-1,3,4-oxadiazol-2-yl)-7-oxo-1,6-diazabicyclo[3.2.1]octan-6-yl hydrogen sulfate]",more active than Avibactam,more active than Avibactam
"O=C1N2C[C@@H](CC[C@H]2c2nnc(C3CC4(CNC4)C3)o2)N1OS(=O)(=O)O [Compound 750, (2S,5R)-2-(5-(2-azaspiro[3,3]heptan-6-yl)-1,3,4-oxadiazol-2-yl)-7-oxo-1,6-diazabicyclo[3.2.1]octan-6-yl hydrogen sulfate]",more active than Avibactam,more active than Avibactam
"N[C@H]1CN[C@H](c2nnc([C@@H]3CC[C@@H]4CN3C(=O)N4OS(=O)(=O)O)o2)C1 [Compound 762, (2S,5R)-2-(5-((2S,4R)-4-aminopyrrolidin-2-yl)-1,3,4-oxadiazol-2-yl)-7-oxo-1,6-diazabicyclo[3.2.1]octan-6-yl hydrogen sulfate]",more active than Avibactam,more active than Avibactam
"N[C@H]1C[C@H](Cc2nnc([C@@H]3CC[C@@H]4CN3C(=O)N4OS(=O)(=O)O)o2)C1 [Compound 751, (2S,5R)-2-(5-(((1r,3S)-3-aminocyclobutyl)methyl)-1,3,4-oxadiazol-2-yl)-7-oxo-1,6-diazabicyclo[3.2.1]octan-6-yl hydrogen sulfate]",more active than Avibactam,more active than Avibactam
"O=C1N2C[C@@H](CC[C@H]2c2nnc(C3CNC3)o2)N1OS(=O)(=O)O [Compound 708, (2S,5R)-2-(5-(azetidin-3-yl)-1,3,4-oxadiazol-2-yl)-7-oxo-1,6-diazabicyclo[3.2.1]octan-6-yl hydrogen sulfate]",more active than Avibactam,more active than Avibactam
"CC(C)(N)Cc1nnc([C@@H]2CC[C@@H]3CN2C(=O)N3OS(=O)(=O)O)o1 [Compound 737, (2S,5R)-2-(5-(2-amino-2-methylpropyl)-1,3,4-oxadiazol-2-yl)-7-oxo-1,6-diazabicyclo[3.2.1]octan-6-yl hydrogen sulfate]",more active than Avibactam,more active than Avibactam
"N=C(N)NC1CC(Cc2nnc([C@@H]3CC[C@@H]4CN3C(=O)N4OS(=O)(=O)O)o2)C1 (stereo partly drawn) [Compound 752, (2S,5R)-2-(5-((3-guanidinocyclobutyl)methyl)-1,3,4-oxadiazol-2-yl)-7-oxo-1,6-diazabicyclo[3.2.1]octan-6-yl hydrogen sulfate]",more active than Avibactam,more active than Avibactam
"N=C(N)N[C@H]1C[C@@H](c2nnc([C@@H]3CC[C@@H]4CN3C(=O)N4OS(=O)(=O)O)s2)C1 [Compound 784, (2S,5R)-2-(5-((1s,3R)-3-guanidinocyclobutyl)-1,3,4-thiadiazol-2-yl)-7-oxo-1,6-diazabicyclo[3.2.1]octan-6-yl hydrogen sulfate]",more active than Avibactam,more active than Avibactam
"O=C1N2C[C@@H](CC[C@H]2c2nnc([C@H]3CNCCN3)o2)N1OS(=O)(=O)O [Compound 779, (2S,5R)-7-oxo-2-(5-((R)-piperazin-2-yl)-1,3,4-oxadiazol-2-yl)-1,6-diazabicyclo[3.2.1]octan-6-yl hydrogen sulfate]",more active than Avibactam,more active than Avibactam
"O=C1N2C[C@@H](CC[C@H]2c2nnc(CCCC3CNC3)o2)N1OS(=O)(=O)O [Compound 743, (2S,5R)-2-(5-(3-(azetidin-3-yl)propyl)-1,3,4-oxadiazol-2-yl)-7-oxo-1,6-diazabicyclo[3.2.1]octan-6-yl hydrogen sulfate]",more active than Avibactam,more active than Avibactam
"N[C@@H]1CN[C@@H](c2nnc([C@@H]3CC[C@@H]4CN3C(=O)N4OS(=O)(=O)O)o2)C1 [Compound 763, (2S,5R)-2-(5-((2R,4S)-4-aminopyrrolidin-2-yl)-1,3,4-oxadiazol-2-yl)-7-oxo-1,6-diazabicyclo[3.2.1]octan-6-yl hydrogen sulfate]",more active than Avibactam,more active than Avibactam
"N=C(N)N1CC(c2nnc([C@@H]3CC[C@@H]4CN3C(=O)N4OS(=O)(=O)O)o2)C1 [Compound 709, (2S,5R)-2-(5-(1-carbamimidoylazetidin-3-yl)-1,3,4-oxadiazol-2-yl)-7-oxo-1,6-diazabicyclo[3.2.1]octan-6-yl hydrogen sulfate]",more active than Avibactam,more active than Avibactam
"O=C1N2C[C@@H](CC[C@H]2c2nnc(CCCNC3CCNCC3)o2)N1OS(=O)(=O)O [Compound 771, (2S,5R)-7-oxo-2-(5-(3-(piperidin-4-ylamino)propyl)-1,3,4-oxadiazol-2-yl)-1,6-diazabicyclo[3.2.1]octan-6-yl hydrogen sulfate]",more active than Avibactam,more active than Avibactam
"O=C1N2C[C@@H](CC[C@H]2c2nnc([C@H]3CCNC3)o2)N1OS(=O)(=O)O [Compound 758, (2S,5R)-7-oxo-2-(5-((S)-pyrrolidin-3-yl)-1,3,4-oxadiazol-2-yl)-1,6-diazabicyclo[3.2.1]octan-6-yl hydrogen sulfate]",more active than Avibactam,more active than Avibactam
"N=C(N)NC1(Cc2nnc([C@@H]3CC[C@@H]4CN3C(=O)N4OS(=O)(=O)O)o2)CC1 [Compound 739, (2S,5R)-2-(5-((1-guanidinocyclopropyl)methyl)-1,3,4-oxadiazol-2-yl)-7-oxo-1,6-diazabicyclo[3.2.1]octan-6-yl hydrogen sulfate]",more active than Avibactam,more active than Avibactam
"N[C@@H]1CN[C@H](c2nnc([C@@H]3CC[C@@H]4CN3C(=O)N4OS(=O)(=O)O)o2)C1 [Compound 760, (2S,5R)-2-(5-((2S,4S)-4-aminopyrrolidin-2-yl)-1,3,4-oxadiazol-2-yl)-7-oxo-1,6-diazabicyclo[3.2.1]octan-6-yl hydrogen sulfate]",more active than Avibactam,more active than Avibactam
"NC1CCN(Cc2nnc([C@@H]3CC[C@@H]4CN3C(=O)N4OS(=O)(=O)O)o2)CC1 [Compound 774, (2S,5R)-2-(5-((4-aminopiperidin-1-yl)methyl)-1,3,4-oxadiazol-2-yl)-7-oxo-1,6-diazabicyclo[3.2.1]octan-6-yl hydrogen sulfate]",more active than Avibactam,more active than Avibactam
"O=C1N2C[C@@H](CC[C@H]2c2nnc([C@H]3[C@@H]4CNC[C@@H]43)o2)N1OS(=O)(=O)O [Compound 740, (2S,5R)-2-(5-(3-azabicyclo[3.1.0]hexan-6-yl)-1,3,4-oxadiazol-2-yl)-7-oxo-1,6-diazabicyclo[3.2.1]octan-6-yl hydrogen sulfate]",more active than Avibactam,more active than Avibactam
"N[C@H]1C[C@H](c2nnc([C@@H]3CC[C@@H]4CN3C(=O)N4OS(=O)(=O)O)o2)C1 [Compound 727, (2S,5R)-2-(5-((1r,3S)-3-aminocyclobutyl)-1,3,4-oxadiazol-2-yl)-7-oxo-1,6-diazabicyclo[3.2.1]octan-6-yl hydrogen sulfate]",more active than Avibactam,more active than Avibactam
"CNCCCc1nnc([C@@H]2CC[C@@H]3CN2C(=O)N3OS(=O)(=O)O)o1 [Compound 734, (2S,5R)-2-(5-(3-(methylamino)propyl)-1,3,4-oxadiazol-2-yl)-7-oxo-1,6-diazabicyclo[3.2.1]octan-6-yl hydrogen sulfate]",more active than Avibactam,more active than Avibactam
